Results as given in ChEMBL document CHEMBL1275576, “In vitro activity of tomopenem (CS-023/RO4908463) against anaerobic bacteria” (Antimicrob Agents Chemother, 2009).

Legend:
Format in all cases: functional
Bacteroides fragilis [1] = assay: Antimicrobial activity against carbapenemase-producing Bacteroides fragilis GAI 30144 by agar dilution method in presence of 5% laked sheep blood
Phocaeicola vulgatus = assay: Antimicrobial activity against Bacteroides vulgatus GAI 0673 by agar dilution method in presence of 5% laked sheep blood
[2] = tested on: Bacteroides thetaiotaomicron; assay: Antimicrobial activity against Bacteroides thetaiotaomicron ATCC 29741 by agar dilution method in presence of 5% laked sheep blood
Bacteroides uniformis = assay: Antimicrobial activity against Bacteroides uniformis ATCC 8492 by agar dilution method in presence of 5% laked sheep blood
Campylobacter gracilis = assay: Antimicrobial activity against Campylobacter gracilis JCM 8538 by agar dilution method in presence of 5% laked sheep blood
[3] = tested on: Sutterella wadsworthensis; assay: Antimicrobial activity against Sutterella wadsworthensis ATCC 51579 by agar dilution method in presence of 5% laked sheep blood
Prevotella buccae = assay: Antimicrobial activity against Prevotella buccae ATCC 33574 by agar dilution method in presence of 5% laked sheep blood; conditions: Segatella buccae
Prevotella corporis = assay: Antimicrobial activity against Prevotella corporis GAI 91000 by agar dilution method in presence of 5% laked sheep blood
[4] = tested on: Bacteroides heparinolyticus; assay: Antimicrobial activity against Prevotella heparinolytica ATCC 35895 by agar dilution method in presence of 5% laked sheep blood
Prevotella intermedia = assay: Antimicrobial activity against Prevotella intermedia ATCC 25611 by agar dilution method in presence of 5% laked sheep blood
Hoylesella oralis = assay: Antimicrobial activity against Prevotella oralis ATCC 33269 by agar dilution method in presence of 5% laked sheep blood
Prevotella oris = assay: Antimicrobial activity against Prevotella oris ATCC 33573 by agar dilution method in presence of 5% laked sheep blood; conditions: Segatella oris
[5] = tested on: Porphyromonas asaccharolytica; assay: Antimicrobial activity against Porphyromonas asaccharolyticus ATCC 25260 by agar dilution method in presence of 5% laked sheep blood; conditions: DSM 20707
Porphyromonas gingivalis = assay: Antimicrobial activity against Porphyromonas gingivalis ATCC 33277 by agar dilution method in presence of 5% laked sheep blood
[6] = tested on: Fusobacterium necrophorum; assay: Antimicrobial activity against Fusobacterium necrophorum ATCC 25286 by agar dilution method in presence of 5% laked sheep blood
Bilophila wadsworthia = assay: Antimicrobial activity against Bilophila wadsworthia WAL 7959 by agar dilution method in presence of 5% laked sheep blood
[7] = tested on: Desulfovibrio desulfuricans; assay: Antimicrobial activity against Desulfovibrio desulfuricans ATCC 29577 by agar dilution method in presence of 5% laked sheep blood
Veillonella parvula = assay: Antimicrobial activity against Veillonella parvula ATCC 10790 by agar dilution method in presence of 5% laked sheep blood
[8] = Antimicrobial activity against Veillonella dispar ATCC 17748 by agar dilution method in presence of 5% laked sheep blood
Parvimonas micra = assay: Antimicrobial activity against Parvimonas micra VPI 5464-1 by agar dilution method in presence of 5% laked sheep blood
[9] = tested on: Peptoniphilus asaccharolyticus; assay: Antimicrobial activity against Peptoniphilus asaccharolyticus WAL 3218 by agar dilution method in presence of 5% laked sheep blood
Peptoniphilus indolicus = assay: Antimicrobial activity against Peptoniphilus indolicus GAI 0915 by agar dilution method in presence of 5% laked sheep blood
Gemella morbillorum = assay: Antimicrobial activity against Gemella morbillorum ATCC 27824 by agar dilution method in presence of 5% laked sheep blood
[10] = tested on: Staphylococcus saccharolyticus; assay: Antimicrobial activity against Staphylococcus saccharolyticus ATCC 14953 by agar dilution method in presence of 5% laked sheep blood
[11] = tested on: Streptococcus intermedius; assay: Antimicrobial activity against Streptococcus intermedius ATCC 27335 by agar dilution method in presence of 5% laked sheep blood
[12] = tested on: Enterocloster clostridioformis; assay: Antimicrobial activity against Clostridium clostridioforme NCTC 11224 by agar dilution method in presence of 5% laked sheep blood
Clostridioides difficile = assay: Antimicrobial activity against Clostridium difficile GAI 10029 by agar dilution method in presence of 5% laked sheep blood
Clostridium septicum = assay: Antimicrobial activity against Clostridium septicum ATCC 12464 by agar dilution method in presence of 5% laked sheep blood
[13] = tested on: Paeniclostridium sordellii; assay: Antimicrobial activity against Clostridium sordellii ATCC 9714 by agar dilution method in presence of 5% laked sheep blood; conditions: Paraclostridium sordellii
Thomasclavelia ramosa = assay: Antimicrobial activity against Clostridium ramosum ATCC 25582 by agar dilution method in presence of 5% laked sheep blood
Schaalia odontolytica = assay: Antimicrobial activity against Actinomyces odontolyticus GAI 91002 by agar dilution method in presence of 5% laked sheep blood
[14] = Antimicrobial activity against Bifidobacterium adolescentis ATCC 15703 by agar dilution method in presence of 5% laked sheep blood
Bifidobacterium bifidum = assay: Antimicrobial activity against Bifidobacterium bifidum JCM 1255 by agar dilution method in presence of 5% laked sheep blood
Bifidobacterium breve = assay: Antimicrobial activity against Bifidobacterium breve ATCC 15700 by agar dilution method in presence of 5% laked sheep blood
[15] = Antimicrobial activity against Bifidobacterium longum subsp. longum ATCC 15707 by agar dilution method in presence of 5% laked sheep blood
Eggerthella lenta = assay: Antimicrobial activity against Eggerthella lenta ATCC 25559 by agar dilution method in presence of 5% laked sheep blood
Cutibacterium acnes = assay: Antimicrobial activity against Propionibacterium acnes ATCC 11828 by agar dilution method in presence of 5% laked sheep blood
[16] = tested on: Propionibacterium granulosum; assay: Antimicrobial activity against Propionibacterium granulosum ATCC 25564 by agar dilution method in presence of 5% laked sheep blood; conditions: Cutibacterium granulosum
[17] = tested on: Lactobacillus acidophilus; assay: Antimicrobial activity against Lactobacillus acidophilus JCM 1132 by agar dilution method in presence of 5% laked sheep blood
Lactobacillus brevis = assay: Antimicrobial activity against Lactobacillus brevis subsp. brevis JCM 1059 by agar dilution method in presence of 5% laked sheep blood; conditions: Levilactobacillus brevis
[18] = tested on: Limosilactobacillus reuteri; assay: Antimicrobial activity against Lactobacillus reuteri JCM 1112 by agar dilution method in presence of 5% laked sheep blood
Bacteroides fragilis [19] = assay: Antimicrobial activity against Bacteroides fragilis GAI 5562 by agar dilution method in presence of 5% laked sheep blood
Bacteroides fragilis [20] = assay: Antimicrobial activity against Bacteroides fragilis ATCC 25285 by agar dilution method in presence of 5% laked sheep blood; conditions: NCTC 9343
Bacteroides fragilis [21] = assay: Antimicrobial activity against Bacteroides fragilis NCTC 10581 by agar dilution method in presence of 5% laked sheep blood
Bacteroides fragilis [22] = assay: Antimicrobial activity against Bacteroides fragilis GAI 0558 by agar dilution method in presence of 5% laked sheep blood
Bacteroides fragilis [23] = assay: Antimicrobial activity against Bacteroides fragilis GAI 7955 by agar dilution method in presence of 5% laked sheep blood

CCC[C@@H]1C[C@@H](C(=O)N[C@@H]([C@H]2O[C@H](SC)[C@H](O)[C@@H](O)[C@H]2O)[C@H](C)Cl)N(C)C1 [CLINDAMYCIN]
MIC (Bacteroides fragilis [1]): 2 µg/mL | MIC (Phocaeicola vulgatus): 0.06 µg/mL | MIC [2]: 4 µg/mL | MIC (Bacteroides uniformis): ≤ 0.03 µg/mL | MIC (Campylobacter gracilis): 0.125 µg/mL | MIC [3]: 16 µg/mL | MIC (Prevotella buccae): ≤ 0.03 µg/mL | MIC (Prevotella corporis): ≤ 0.03 µg/mL | MIC [4]: ≤ 0.03 µg/mL | MIC (Prevotella intermedia): ≤ 0.03 µg/mL | MIC (Hoylesella oralis): ≤ 0.03 µg/mL | MIC (Prevotella oris): ≤ 0.03 µg/mL | MIC [5]: ≤ 0.03 µg/mL | MIC (Porphyromonas gingivalis): ≤ 0.03 µg/mL | MIC [6]: ≤ 0.03 µg/mL | MIC (Bilophila wadsworthia): 0.5 µg/mL | MIC [7]: 0.5 µg/mL | MIC (Veillonella parvula): ≤ 0.03 µg/mL | MIC [8]: ≤ 0.03 µg/mL | MIC (Parvimonas micra): 0.25 µg/mL | MIC [9]: > 128 µg/mL | MIC (Peptoniphilus indolicus): 32 µg/mL | MIC (Gemella morbillorum): 0.06 µg/mL | MIC [10]: 0.125 µg/mL | MIC [11]: 0.25 µg/mL | MIC [12]: 0.25 µg/mL | MIC (Clostridioides difficile): > 128 µg/mL | MIC (Clostridium septicum): ≤ 0.03 µg/mL | MIC [13]: 1 µg/mL | MIC (Thomasclavelia ramosa): 8 µg/mL | MIC (Schaalia odontolytica): 0.25 µg/mL | MIC [14]: ≤ 0.03 µg/mL | MIC (Bifidobacterium bifidum): ≤ 0.03 µg/mL | MIC (Bifidobacterium breve): ≤ 0.03 µg/mL | MIC [15]: ≤ 0.03 µg/mL | MIC (Eggerthella lenta): 0.25 µg/mL | MIC (Cutibacterium acnes): 0.125 µg/mL | MIC [16]: ≤ 0.03 µg/mL | MIC [17]: 1 µg/mL | MIC (Lactobacillus brevis): ≤ 0.03 µg/mL | MIC [18]: ≤ 0.03 µg/mL | MIC (Bacteroides fragilis [19]): 0.5 µg/mL | MIC (Bacteroides fragilis [20]): 1 µg/mL | MIC (Bacteroides fragilis [21]): ≤ 0.03 µg/mL | MIC (Bacteroides fragilis [22]): 0.5 µg/mL | MIC (Bacteroides fragilis [23]): 1 µg/mL
